Experimental data as given in the NIST ThermoML archive (doi:10.1021/je400178k).

Assay: molar heat capacity at constant pressure; xn = mol fraction of the nth substance listed
Details: 101 kPa, Liquid, Small sample (50 mg) DSC

NCCCN1CCOCC1 [N-(3-aminopropyl)morpholine] + O
molar heat capacity at constant pressure [J/K/mol]
Details | x1 = 0.0999 | x1 = 0.2 | x1 = 0.2921 | x1 = 0.3916 | x1 = 0.4896 | x1 = 0.6011 | x1 = 0.6947 | x1 = 0.7952 | x1 = 0.8939 | x1 = 1
298.15 K | 108.4 | 136.2 | 160.1 | 183.1 | 203.5 | 224.3 | 242.5 | 261.6 | 278.9 | 296.2
303.15 K | 109.3 | 137.2 | 161.5 | 184.9 | 205.1 | 226.3 | 244.5 | 263.6 | 281 | 298.2
308.15 K | 110.3 | 138.2 | 162.6 | 186.4 | 206.8 | 227.8 | 246.1 | 265.1 | 282.5 | 299.6
313.15 K | 111.3 | 139.5 | 164 | 188.1 | 208.5 | 229.5 | 247.7 | 266.7 | 284 | 301.2
318.15 K | 112.3 | 140.9 | 165.6 | 189.9 | 210.3 | 231.2 | 249.4 | 268.4 | 285.8 | 302.8
323.15 K | 113.1 | 142.3 | 167.2 | 191.3 | 211.7 | 232.9 | 251.1 | 270.1 | 287.5 | 304.5
328.15 K | 114 | 143.7 | 168.6 | 192.9 | 213.2 | 234.4 | 252.6 | 271.6 | 289.1 | 306.1
333.15 K | 114.9 | 145.3 | 170.3 | 194.5 | 214.8 | 236 | 254.3 | 273.4 | 290.9 | 307.9
338.15 K | 115.9 | 146.8 | 171.9 | 196.2 | 216.5 | 237.7 | 256 | 275 | 292.5 | 309.6
343.15 K | 116.8 | 148.2 | 173.8 | 197.6 | 218.1 | 239.5 | 257.6 | 276.5 | 294.2 | 311.3
348.15 K | 117.8 | 149.7 | 175.5 | 199.3 | 219.7 | 240.9 | 259.1 | 277.9 | 295.6 | 312.7
353.15 K | 118.9 | 151.1 | 177.2 | 201.6 | 221.1 | 242.1 | 260.2 | 278.7 | 296.3 | 313.4
